This note sets out measurements from patent US9133183B2, “Imidazolidinones and analogs exhibiting anti-cancer and anti-proliferative activities” (Deciphera Pharmaceuticals, LLC, priority 2013, dated 2015).

For the test, the system named is PC-3 M-luc cells. The experiment in a line: PC-3 peritibial implant model of cancer bone metastasis. As to conditions: oral dose of 30 mg/kg twice daily; lesion score of 4 in vehicle-treated animals; scale 0-4. The format is in vivo, mouse. The text has this: PC-3 Peritibial Implant Model of Cancer Bone Metastasis
To evaluate in vivo anti-cancer activity of compounds of formula I, the PC-3 M-luc peritibial injection model of bone invasiveness model was employed. Briefly, PC-3 M-luc cells were obtained from Xenogen Corporation (Caliper Life Sciences) and expanded using MEM media modified with L-Glutamine (Cell Gro® #10-045-CV) supplemented with 10% fetal bovine serum, 1% penicillin-streptomycin-glutamine, 1% non-essential amino acids, and 1% MEM vitamins in 5% CO2 atmosphere at 37° C. Six to 7 week old male nude mice (Crl:NU-Foxn1nu) were obtained from Charles River Laboratories. Test mice were implanted peritibially on Day 0 with 1×10^6 cells/mouse (0.1 ml) using an insulin syringe with a fixed 28-gauge needle. The needle was inserted at the ankle between the tibia and fibula until the bevel of the needle reached approximately half way between the knee and ankle. Treatments began on Day 0. Animals were dosed by oral gavage twice daily for the study duration. […]
Isosurface volume renderings were used to delineate lesions in the hind limbs. […] Lesions in the right hind limb were scored with values of 0, 1, 2, 3, or 4 based on a qualitative assessment of lesion size as defined by: • 0: Normal Bone • 1: Minimal lesions. […]

For the compound `CCN1CCN(C(=O)Nc2ccc(Oc3ccnc(-c4cnn(C)c4)c3)c(C)n2)C1=O` [Example 42, 3-ethyl-N-(6-methyl-5-((2-(1-methyl-1H-pyrazol-4-yl)pyridin-4-yl)oxy)pyridin-2-yl)-2-oxoimidazolidine-1-carboxamide], the lesion score is on record as 2.
